Assay results reported in patent US20240245673A1, “Papain-like protease (PLpro) inhibitors” (Pfizer Inc., priority 2022, published 2024).
pIC50: −log10 of the molar value.

Target: SARS-CoV-2 Papain like protease (PLpro) (Severe acute respiratory syndrome coronavirus 2 (2019-nCoV) (SARS-CoV-2), UniProt P0DTD1)
Assay: Papain Like Protease (PLpro) biochemical assay with profluorogenic substrate Z-RLRGG-AMC
Conditions: SARS-CoV-2 PLpro 6.25 nM, 25 μM Z-RLRGG-AMC substrate, 60 minute reaction; read-out: IC50

| SMILES | pIC50 |
| --- | --- |
| COC[C@H](OCc1cocn1)c1ccc(C(=O)NC2(c3cc(-c4cnn(C)c4)cc4ncccc34)CC2)c(C)c1 (single isomer, unassigned) [Example 340] | 8.70 |
| COC[C@@H](OCc1cocn1)c1ccc(C(=O)NC2(c3cc(-c4cnn(C)c4)cc4ncccc34)CC2)c(C)c1 (single isomer, unassigned) [Example 355] | > 9.00 |
| COC[C@H](OCc1cocn1)c1ccc(C(=O)NC2(c3cc(-c4cnn(C)c4)cc4ncccc34)CC2)c(C)c1 (single isomer, unassigned) [Example 356] | 8.70 |
| COC[C@H](OCc1cocn1)c1ccc(C(=O)NC2(c3cc(-c4cc(C(=O)N(C)C)n[nH]4)cc4ncccc34)CC2)c(C)c1 (single isomer, unassigned) [Example 359] | > 9.00 |
| COC[C@@H](OCc1cocn1)c1ccc(C(=O)NC2(c3cc(-c4cc(C(=O)N(C)C)n[nH]4)cc4ncccc34)CC2)c(C)c1 (single isomer, unassigned) [Example 360] | 9.00 |
| COC[C@H](OCc1cscn1)c1ccc(C(=O)NC2(c3cc(-c4cc(C(=O)N(C)C)n[nH]4)cc4ncccc34)CC2)c(C)c1 (single isomer, unassigned) [Example 361] | > 9.00 |
| COC[C@@H](OCc1cocn1)c1ccc(C(=O)NC2(c3cc(-c4cnn(C)c4)cc4nc(C)ccc34)CC2)c(C)c1 (single isomer, unassigned) [Example 365] | > 9.00 |
| Cc1ccccc1C(=O)NC(C)c1cc(CC2CCOCC2)nc2ccccc12 (stereo in doubt) [Example 152, 2-methyl-N-[(1R)-1-{2-[(oxan-4-yl)methyl]quinolin-4-yl}ethyl]benzamide] | 6.21 |
| CCCc1cc(C(C)NC(=O)c2ccccc2C)c2ccccc2n1 (stereo in doubt) [Example 153, 2-methyl-N-[(1R)-1-(2-propylquinolin-4-yl)ethyl]benzamide] | 6.51 |
| Cc1ccccc1C(=O)NC(C)c1cc(C2CC(F)(F)C2)nc2ccccc12 (stereo in doubt) [Example 154, N-{(1R)-1-[2-(3,3-difluorocyclobutyl)quinolin-4-yllethyl}-2-methylbenzamide] | 6.01 |
| Cc1ccccc1C(=O)NC(C)c1cc(C2CCOCC2)nc2ccccc12 (stereo in doubt) [Example 155, 2-methyl-N-{(1R)-1-[2-(oxan-4-yl)quinolin-4-yl]ethyl}benzamide] | 6.24 |
| Cc1ccccc1C(=O)NC(C)c1cc(CN2CCCC2=O)nc2ccccc12 (stereo in doubt) [Example 156, 2-methyl-N-[(1R)-1-{2-[(2-oxopyrrolidin-1-yl)-methyl]quinolin-4-yl}ethyl]benzamide] | 5.14 |
| Cc1ccccc1C(=O)NC(C)c1cc(CCn2cccn2)nc2ccccc12 (stereo in doubt) [Example 157, 2-methyl-N-[(1R)-1-{2-[2-(1H-pyrazol-1-yl)ethyl]-quinolin-4-yl}ethyl]benzamide] | 5.57 |
| Cc1ccccc1C(=O)NC(C)c1cc(CN)nc2ccccc12 (stereo in doubt) [Example 158, N-{(1R)-1-[2-(aminomethyl)quinolin-4-yl]-ethyl}-2-methylbenzamide] | 5.26 |
| Cc1ccccc1C(=O)NC(C)c1cc(CC#N)nc2ccccc12 (stereo in doubt) [Example 159, N-{(1R)-1-[2-(cyanomethyl)quinolin-4-yl]-ethyl}-2-methylbenzamide] | 5.70 |
| Cc1ccc(C(N)=O)cc1C(=O)NC(C)c1cc(-n2ccnn2)cc2ccccc12 (stereo not drawn) [Example 1, N^1-(1-(3-(1H-1,2,3-triazol-1-yl)naphthalen-1-yl)ethyl)-6-methylisophthalamide] | 5.75 |
| Cc1ccc(C(N)=O)cc1C(=O)NC(C)c1cc(-n2nccn2)cc2ccccc12 (stereo not drawn) [Example 2, N^1-(1-(3-(2H-1,2,3-triazol-2-yl)naphthalen-1-yl)ethyl)-6-methylisophthalamide] | 5.86 |
| Cc1ccc(CN)cc1C(=O)NC(C)c1cc(-c2cnn(C)c2)cc2ccccc12 (stereo not drawn) [Example 3, 5-(aminomethyl)-2-methyl-N-(1-(3-(1-methyl-1H-pyrazol-4-yl)naphthalen-1-yl)ethyl)benzamide] | 7.32 |
| Cc1ccc(NC(=O)[C@H]2CCCCN2)cc1C(=O)NC(C)c1cc(-c2cnn(C)c2)cc2ccccc12 (stereo partly drawn) [Example 4, (2R)—N-(4-methyl-3-((1-(3-(1-methyl-1H-pyrazol-4-yl)naphthalen-1-yl)ethyl)carbamoyl)phenyl)piperidine-2-carboxamide] | 7.64 |
| Cc1cc(CN)ccc1C(=O)NC(C)c1cc(-c2cnn(C)c2)cc2ccccc12 (stereo not drawn) [Example 5, 4-(aminomethyl)-2-methyl-N-(1-(3-(1-methyl-1H-pyrazol-4-yl)naphthalen-1-yl)ethyl)benzamide] | 7.06 |

| SMILES | pIC50 |
| --- | --- |
| Cc1cc(CNCc2ncc[nH]2)ccc1C(=O)NC(C)c1cc(-c2cnn(C)c2)cc2ccccc12 (stereo not drawn) [Example 6, 4-((((1H-imidazol-2-yl)methyl)amino)methyl)-2-methyl-N-(1-(3-(1-methyl-1H-pyrazol-4-yl)naphthalen-1-yl)ethyl)benzamide] | 7.72 |
| Cc1cc(CNCc2cscn2)ccc1C(=O)NC(C)c1cc(-c2cnn(C)c2)cc2ccccc12 (stereo not drawn) [Example 7, 2-methyl-N-(1-(3-(1-methyl-1H-pyrazol-4-yl)naphthalen-1-yl)ethyl)-4-(((thiazol-4-ylmethyl)amino)methyl)benzamide] | 7.89 |
| CNCc1ccc(C)c(C(=O)NC(C)c2cc(-c3cnn(C)c3)cc3ccccc23)c1 (stereo not drawn) [Example 10, 2-methyl-N-(1-(3-(1-methyl-1H-pyrazol-4-yl)naphthalen-1-yl)ethyl)-5-((methylamino)methyl)benzamide] | 7.48 |
| Cc1ccc(CN)cc1C(=O)N[C@H](C)c1cc(-c2cnn(C)c2)nc2ccccc12 [Example 11, (R)-5-(aminomethyl)-2-methyl-N-(1-(2-(1-methyl-1H-pyrazol-4-yl)quinolin-4-yl)ethyl)benzamide] | 7.57 |
| Cc1ccccc1C(=O)N[C@H](C)c1cc(-c2ccn(C)n2)nc2ccccc12 [Example 12, (R)-2-methyl-N-(1-(2-(1-methyl-1H-pyrazol-3-yl)quinolin-4-yl)ethyl)benzamide] | 6.27 |
| CNCc1ccc(C)c(C(=O)N[C@H](C)c2cc(-c3cnn(C)c3)nc3ccccc23)c1 [Example 13, (R)-2-methyl-N-(1-(2-(1-methyl-1H-pyrazol-4-yl)quinolin-4-yl)ethyl)-5-((methylamino)methyl)benzamide] | 7.62 |
| Cc1ccc(NC(=O)[C@H]2CCCCN2)cc1C(=O)N[C@H](C)c1cc(-c2cnn(C)c2)nc2ccccc12 [Example 14, (R)-N-(4-methyl-3-(((R)-1-(2-(1-methyl-1H-pyrazol-4-yl)quinolin-4-yl)ethyl)carbamoyl)phenyl)piperidine-2-carboxamide] | 7.72 |
| Cc1ccc(N(C)C(=O)[C@H]2CCCCN2)cc1C(=O)N[C@H](C)c1cc(-c2cnn(C)c2)nc2ccccc12 [Example 15, (R)—N-methyl-N-(4-methyl-3-(((R)-1-(2-(1-methyl-1H-pyrazol-4-yl)quinolin-4-yl)ethyl)carbamoyl)phenyl)piperidine-2-carboxamide] | 6.31 |
| Cc1ccc(CN)cc1C(=O)N[C@H](C)c1cc(-n2cnnc2)nc2ccccc12 [Example 16, (R)—N-(1-(2-(4H-1,2,4-triazol-4-yl)quinolin-4-yl)ethyl)-5-(aminomethyl)-2-methylbenzamide] | 6.83 |
| CNCc1ccc(C)c(C(=O)N[C@H](C)c2cc(-c3cn[nH]c3)nc3ccccc23)c1 [Example 17, (R)—N-(1-(2-(1H-pyrazol-4-yl)quinolin-4-yl)ethyl)-2-methyl-5-((methylamino)methyl)benzamide] | 7.66 |
| Cc1ccc(CN)cc1C(=O)N[C@H](C)c1cc(-c2cn[nH]c2)nc2ccccc12 [Example 18, (R)-N-(1-(2-(1H-pyrazol-4-yl)quinolin-4-yl)ethyl)-5-(aminomethyl)-2-methylbenzamide] | 7.57 |
| COC(=O)c1c[nH]c(-c2cc([C@@H](C)NC(=O)c3cc(CN)ccc3C)c3ccccc3n2)c1 [Example 19, methyl(R)-5-(4-(1-(5-(aminomethyl)-2-methylbenzamido)ethyl)quinolin-2-yl)-1H-pyrrole-3-carboxylate] | 7.82 |
| Cc1ccc(CN)cc1C(=O)N[C@H](C)c1cc(-c2cc(C(=O)O)c[nH]2)nc2ccccc12 [Example 20, (R)-5-(4-(1-(5-(aminomethyl)-2-methylbenzamido)ethyl)quinolin-2-yl)-1H-pyrrole-3-carboxylic acid] | 7.39 |
| Cc1ccc(CN)cc1C(=O)N[C@H](C)c1cc(-c2cc(C(N)=O)c[nH]2)nc2ccccc12 [Example 21, (R)-5-(4-(1-(5-(aminomethyl)-2-methylbenzamido)ethyl)quinolin-2-yl)-1H-pyrrole-3-carboxamide] | 7.80 |
| CNC(=O)c1c[nH]c(-c2cc([C@@H](C)NC(=O)c3cc(CN)ccc3C)c3ccccc3n2)c1 [Example 22, (R)-5-(4-(1-(5-(aminomethyl)-2-methylbenzamido)ethyl)quinolin-2-yl)-N-methyl-1H-pyrrole-3-carboxamide] | 7.77 |
| Cc1ccc(CN)cc1C(=O)N[C@H](C)c1cc(-n2ccnn2)nc2ccccc12 [Example 23, (R)—N-(1-(2-(1H-1,2,3-triazol-1-yl)quinolin-4-yl)ethyl)-5-(aminomethyl)-2-methylbenzamide] | 6.53 |
| Cc1ccc(CN)cc1C(=O)N[C@H](C)c1cc(-n2cncn2)nc2ccccc12 [Example 24, (R)-N-(1-(2-(1H-1,2,4-triazol-1-yl)quinolin-4-yl)ethyl)-5-(aminomethyl)-2-methylbenzamide] | 6.60 |
| Cc1ccc(CN)cc1C(=O)NC(C)c1cc(-n2cc(C(F)(F)F)nn2)nc2ccccc12 (stereo not drawn) [Example 31, 5-(aminomethyl)-2-methyl-N-(1-(2-(4-(trifluoromethyl)-1H-1,2,3-triazol-1-yl)quinolin-4-yl)ethyl)benzamide] | 6.17 |
| Cc1ccc(CN)cc1C(=O)NC(C)c1cc(-n2ncc(C(F)(F)F)n2)nc2ccccc12 (stereo not drawn) [Example 32, 5-(aminomethyl)-2-methyl-N-(1-(2-(4-(trifluoromethyl)-2H-1,2,3-triazol-2-yl)quinolin-4-yl)ethyl)benzamide] | 6.17 |
